Numbered stars: 1 amine (or outer) side, 2 acyl side, 3 side chain; on linkers, the order of the positions; unused ones are H or OH. Bridge positions count the residues as written; N and C are the ends. Square brackets hold non-standard residues; d marks the D form. Peptide text beside a SMILES is read from it. * marks the point of attachment. hPhe(3-Cl-4-CF3) = N[C@@H](CCc1ccc(C(F)(F)F)c(Cl)c1)C(=O)O; X98 = O=C([C@H](CCOc1ccc(Cl)c(Cl)c1)N[*:1])[*:2]; X102 = O=C([C@H](CCOc1ccc(Cl)cc1)N[*:1])[*:2]; X61 = O=C(CN(CCCN1CCC(F)(F)CC1)[*:1])[*:2]; X77 = O=C(CN(CCN1CCC(F)(F)CC1)[*:1])[*:2]; NGly(CH2(3-pyridyl)) = O=C(O)CNCc1cccnc1; X69 = CN(C)C(=O)COCCN(CC(=O)[*:2])[*:1]; Gly(Nα-CH2(4-Pyr)) = O=C(O)CNCc1ccncc1; X132 = O=C(CN(CCOCC(F)(F)F)[*:1])[*:2]; X78 = O=C(CN(CCc1cccnc1)[*:1])[*:2]; NMeCha = CN[C@@H](CC1CCCCC1)C(=O)O; X81 = O=C(CN(CCOCC(F)F)[*:1])[*:2]; NMeChg = CN[C@H](C(=O)O)C1CCCCC1; X12 = O=C(CN(CC1COC1)[*:1])[*:2]; X68 = COCCOCCN(CC(=O)[*:2])[*:1]; NMeD = CN[C@@H](CC(=O)O)C(=O)O; Gly(N-CH2CH2OH) = O=C(O)CNCCO; NMeL = CN[C@@H](CC(C)C)C(=O)O; NMeA = CN[C@@H](C)C(=O)O; Piperidide = C1CCN(*)CC1; Ac5c = NC1(C(=O)O)CCCC1; Sar = CNCC(=O)O
target: protein-protein interaction between Kras and SOS1 (biotin-tagged human Kras loaded with GDP, His-tagged human SOS1) (Homo sapiens (Human), UniProt P01116, G12D); test: Protein-protein interaction inhibition between Kras and SOS1 (KrasG12D-SOS PPI) using AlphaScreen; type: biochemical; details: AlphaScreen; biotin-tagged human Kras loaded with GDP, His-tagged human SOS1; read-out: KRAS G12D-SOS PPI IC50;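 also: kras produced in E. coli, Ni-coupled donor beads and streptavidin acceptor beads, excitation 680 nm with emission detected at 520–620 nm via singlet oxygen transfer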

| Structure (SMILES) | IC50 [nM] |
| --- | --- |
| CC[C@H](C)[C@@H]1NC(=O)[C@H](CC(C)C)N(C)C(=O)C[C@@H](C(=O)N2CCCCC2)N(C)C(=O)[C@H](C2CCCCC2)N(C)C(=O)C2(CCCC2)NC(=O)CN(CCCN2CCC(F)(F)CC2)C(=O)[C@H](CCc2ccc(C(F)(F)F)c(Cl)c2)NC(=O)CN(C)C(=O)[C@H](CC2CCCCC2)N(C)C(=O)CN(C)C(=O)CN(C)C1=O [Compound 2021] ([NMeL]I[Sar][Sar][NMeCha][Sar][hPhe(3-Cl-4-CF3)][X61][Ac5c][NMeChg][NMeD]-Piperidide; lactam N-11) | 2.8 |
| CC[C@H](C)[C@@H]1NC(=O)[C@H](CC(C)C)N(C)C(=O)C[C@@H](C(=O)N2CCCCC2)N(C)C(=O)[C@H](C2CCCCC2)N(C)C(=O)C2(CCCC2)NC(=O)CN(CCN2CCC(F)(F)CC2)C(=O)[C@H](CCc2ccc(C(F)(F)F)c(Cl)c2)NC(=O)CN(C)C(=O)[C@H](CC2CCCCC2)N(C)C(=O)CN(C)C(=O)CN(C)C1=O [Compound 2022] ([NMeL]I[Sar][Sar][NMeCha][Sar][hPhe(3-Cl-4-CF3)][X77][Ac5c][NMeChg][NMeD]-Piperidide; lactam N-11) | 3.8 |
| CC[C@H](C)[C@@H]1NC(=O)[C@H](CC(C)C)N(C)C(=O)C[C@@H](C(=O)N2CCCCC2)N(C)C(=O)[C@H](C2CCCCC2)N(C)C(=O)C2(CCCC2)NC(=O)CN(CCOCC(F)(F)F)C(=O)[C@H](CCc2ccc(C(F)(F)F)c(Cl)c2)NC(=O)CN(C)C(=O)[C@H](CC2CCCCC2)N(C)C(=O)CN(C)C(=O)CN(C)C1=O [Compound 2024] ([NMeL]I[Sar][Sar][NMeCha][Sar][hPhe(3-Cl-4-CF3)][X132][Ac5c][NMeChg][NMeD]-Piperidide; lactam N-11 (inferred); C-terminus assumed) | 4.3 |
| CC[C@H](C)[C@@H]1NC(=O)[C@H](CC(C)C)N(C)C(=O)C[C@@H](C(=O)N2CCCCC2)N(C)C(=O)[C@H](C2CCCCC2)N(C)C(=O)C2(CCCC2)NC(=O)CN(CCOCCOC)C(=O)[C@H](CCc2ccc(C(F)(F)F)c(Cl)c2)NC(=O)CN(C)C(=O)[C@H](CC2CCCCC2)N(C)C(=O)CN(C)C(=O)CN(C)C1=O [Compound 2025] ([NMeL]I[Sar][Sar][NMeCha][Sar][hPhe(3-Cl-4-CF3)][X68][Ac5c][NMeChg][NMeD]-Piperidide; lactam N-11 (inferred); C-terminus assumed) | 1.4 |
| CC[C@H](C)[C@@H]1NC(=O)[C@H](CC(C)C)N(C)C(=O)C[C@@H](C(=O)N2CCCCC2)N(C)C(=O)[C@H](C2CCCCC2)N(C)C(=O)C2(CCCC2)NC(=O)CN(Cc2cccnc2)C(=O)[C@H](CCc2ccc(C(F)(F)F)c(Cl)c2)NC(=O)CN(C)C(=O)[C@H](CC2CCCCC2)N(C)C(=O)CN(C)C(=O)CN(C)C1=O [Compound 2026] ([NMeL]I[Sar][Sar][NMeCha][Sar][hPhe(3-Cl-4-CF3)][NGly(CH2(3-pyridyl))][Ac5c][NMeChg][NMeD]-Piperidide; lactam N-11 (inferred); C-terminus assumed) | 1.3 |
| CC[C@H](C)[C@@H]1NC(=O)[C@H](CC(C)C)N(C)C(=O)C[C@@H](C(=O)N2CCCCC2)N(C)C(=O)[C@H](C2CCCCC2)N(C)C(=O)C2(CCCC2)NC(=O)CN(CC2COC2)C(=O)[C@H](CCc2ccc(C(F)(F)F)c(Cl)c2)NC(=O)CN(C)C(=O)[C@H](CC2CCCCC2)N(C)C(=O)CN(C)C(=O)CN(C)C1=O [Compound 2031] ([NMeL]I[Sar][Sar][NMeCha][Sar][hPhe(3-Cl-4-CF3)][X12][Ac5c][NMeChg][NMeD]-Piperidide; lactam N-11 (inferred); C-terminus assumed) | 0.82 |
| CC[C@H](C)[C@@H]1NC(=O)[C@H](CC(C)C)N(C)C(=O)C[C@@H](C(=O)N2CCCCC2)N(C)C(=O)[C@H](C2CCCCC2)N(C)C(=O)C2(CCCC2)NC(=O)CN(CCc2cccnc2)C(=O)[C@H](CCc2ccc(C(F)(F)F)c(Cl)c2)NC(=O)CN(C)C(=O)[C@H](CC2CCCCC2)N(C)C(=O)CN(C)C(=O)CN(C)C1=O [Compound 2032] ([NMeL]I[Sar][Sar][NMeCha][Sar][hPhe(3-Cl-4-CF3)][X78][Ac5c][NMeChg][NMeD]-Piperidide; lactam N-11 (inferred); C-terminus assumed) | 1.2 |
| CC[C@H](C)[C@@H]1NC(=O)[C@H](CC(C)C)N(C)C(=O)C[C@@H](C(=O)N2CCCCC2)N(C)C(=O)[C@H](C2CCCCC2)N(C)C(=O)C2(CCCC2)NC(=O)CN(Cc2ccncc2)C(=O)[C@H](CCc2ccc(C(F)(F)F)c(Cl)c2)NC(=O)CN(C)C(=O)[C@H](CC2CCCCC2)N(C)C(=O)CN(C)C(=O)CN(C)C1=O [Compound 2033] ([NMeL]I[Sar][Sar][NMeCha][Sar][hPhe(3-Cl-4-CF3)][Gly(Nα-CH2(4-Pyr))][Ac5c][NMeChg][NMeD]-Piperidide; lactam N-11 (inferred); C-terminus assumed) | 0.65 |
| CC[C@H](C)[C@@H]1NC(=O)[C@H](CC(C)C)N(C)C(=O)C[C@@H](C(=O)N2CCCCC2)N(C)C(=O)[C@H](C2CCCCC2)N(C)C(=O)C2(CCCC2)NC(=O)CN(CCOCC(F)F)C(=O)[C@H](CCc2ccc(C(F)(F)F)c(Cl)c2)NC(=O)CN(C)C(=O)[C@H](CC2CCCCC2)N(C)C(=O)CN(C)C(=O)CN(C)C1=O [Compound 2036] ([NMeL]I[Sar][Sar][NMeCha][Sar][hPhe(3-Cl-4-CF3)][X81][Ac5c][NMeChg][NMeD]-Piperidide; lactam N-11 (inferred); C-terminus assumed) | 1.1 |
| CC[C@H](C)[C@@H]1NC(=O)[C@H](CC(C)C)N(C)C(=O)C[C@@H](C(=O)N2CCCCC2)N(C)C(=O)[C@H](C2CCCCC2)N(C)C(=O)C2(CCCC2)NC(=O)CN(CCO)C(=O)[C@H](CCc2ccc(C(F)(F)F)c(Cl)c2)NC(=O)CN(C)C(=O)[C@H](CC2CCCCC2)N(C)C(=O)CN(C)C(=O)CN(C)C1=O [Compound 2037, (11S,17S,26S,29S,33S,36S)-11-[2-[3-chloro-4-(trifluoromethyl)phenyl]ethyl]-36-cyclohexyl-17-(cyclohexylmethyl)-9-(2-hydroxyethyl)-29-isobutyl-15,18,21,24,30,34,37-heptamethyl-26-[(1S)-1-methylpropyl]-33-(piperidine-1-carbonyl)-6,9,12,15,18,21,24,27,30,34,37-undecazaspiro[4.33]octatriacontane-7,10,13,16,19,22,25,28,31,35,38-undecone] ([NMeL]I[Sar][Sar][NMeCha][Sar][hPhe(3-Cl-4-CF3)][Gly(N-CH2CH2OH)][Ac5c][NMeChg][NMeD]-Piperidide; lactam N-11) | 0.58 |
| CC[C@H](C)[C@@H]1NC(=O)[C@H](CC(C)C)N(C)C(=O)C[C@@H](C(=O)N2CCCCC2)N(C)C(=O)[C@H](C2CCCCC2)N(C)C(=O)C2(CCCC2)NC(=O)CN(CCOCC(=O)N(C)C)C(=O)[C@H](CCc2ccc(C(F)(F)F)c(Cl)c2)NC(=O)CN(C)C(=O)[C@H](CC2CCCCC2)N(C)C(=O)CN(C)C(=O)CN(C)C1=O [Compound 2038, 2-[2-[(11S,17S,26S,29S,33S,36S)-11-[2-[3-chloro-4-(Trifluoromethyl)phenyl]ethyl]-36-cyclohexyl-17-(cyclohexylmethyl)-29-isobutyl-15,18,21,24,30,34,37-heptamethyl-26-[(1S)-1-methylpropyl]-7,10,13,16,19,22,25,28,31,35,38-undecaoxo-33-(piperidine-1-carbonyl)-6,9,12,15,18,21,24,27,30,34,37-undecazaspiro[4.33]octatriacontan-9-yl]ethoxy]-N,N-dimethyl-acetamide] ([NMeL]I[Sar][Sar][NMeCha][Sar][hPhe(3-Cl-4-CF3)][X69][Ac5c][NMeChg][NMeD]-Piperidide; lactam N-11) | 8.3 |
| CC[C@H](C)[C@@H]1NC(=O)[C@H](C)N(C)C(=O)C[C@@H](C(=O)N2CCCCC2)N(C)C(=O)[C@H](C2CCCCC2)N(C)C(=O)C2(CCCC2)NC(=O)[C@@H]2CCCN2C(=O)[C@H](CCOc2ccc(Cl)c(Cl)c2)NC(=O)CN(C)C(=O)[C@H](CC2CCCCC2)N(C)C(=O)CN(C)C(=O)CN(C)C1=O [Compound 2039, (3S,9S,18S,21S,25S,28S,34S)-28-cyclohexyl-9-(cyclohexylmethyl)-3-[2-(3,4-dichlorophenoxy)ethyl]-7,10,13,16,21,22,26,29-octamethyl-18-[(1S)-1-methylpropyl]-25-(piperidine-1-carbonyl)spiro[1,4,7,10,13,16,19,22,26,29,32-undecazabicyclo[32.3.0]heptatriacontane-31,1′-cyclopentane]-2,5,8,11,14,17,20,23,27,30,33-undecone] ([NMeA]I[Sar][Sar][NMeCha][Sar][X98]P[Ac5c][NMeChg][NMeD]-Piperidide; lactam N-11) | 18 |
| CC[C@H](C)[C@@H]1NC(=O)[C@H](C)N(C)C(=O)C[C@@H](C(=O)N2CCCCC2)N(C)C(=O)[C@H](C2CCCCC2)N(C)C(=O)C2(CCCC2)NC(=O)[C@@H]2CCCN2C(=O)[C@H](CCOc2ccc(Cl)cc2)NC(=O)CN(C)C(=O)[C@H](CC2CCCCC2)N(C)C(=O)CN(C)C(=O)CN(C)C1=O [Compound 2040, (3S,9S,18S,21S,25S,28S,34S)-3-[2-(4-chlorophenoxy)ethyl]-28-cyclohexyl-9-(cyclohexylmethyl)-7,10,13,16,21,22,26,29-octamethyl-18-[(1S)-1-methylpropyl]-25-(piperidine-1-carbonyl)spiro[1,4,7,10,13,16,19,22,26,29,32-undecazabicyclo[32.3.0]heptatriacontane-31,1-cyclopentane]-2,5,8,11,14,17,20,23,27,30,33-undecone] ([NMeA]I[Sar][Sar][NMeCha][Sar][X102]P[Ac5c][NMeChg][NMeD]-Piperidide; lactam N-11) | 150 |
